Assays:
soybean seeds [1] = assay: Seed germination assay; assay type: in vivo; settings: for germination in 24 hours: test compound 10^−7 M in DI-water, 24 hr in dark at room temperature, radicle emergence as indicator, five repeats of 20 seeds
Description: Materials were all sterilized before use. An aqueous solution of the test compound (25 mL, 10^−7 M in DI-water) was prepared for a set of five repeat experiments. Five Petri dishes and 100 soybean seeds were used to test one compound. A piece of Whatman filter paper was used to cover the inner side of each Petri dish to allow uniform distribution of testing solution. Twenty soybean seeds were placed on the filter paper area of one Petri dish. 5 mL of the test compound solution was carefully poured in the Petri dish. Control experiments were set up the same way with 20 soybean seeds and 5 mL of DI-water per dish without any compounds. The lid was placed on the Petri dish and was sealed with Para-film. Five dishes with repeat experiments were stacked. One stack of dishes was wrapped twice with aluminum foil to prevent the seeds receiving any light. The stacks were transferred to an incubator maintained at room temperature and the seeds were germinated in dark. After 24 hr, the stacks were pulled out for measurement. The number of germinated seeds was counted and the percent of germination on each dish was calculated. Radicle emergence was used as the germination indicator. The dishes were placed unwrapped at room temperature for one day and the number of germinated seeds was counted to assure seeds were able to germinate and different germination yields were not caused by bad seed quality. Seeds showing above 90% of germination were considered normal. The standard deviation of five repeats was calculated. Test results with 10% or lower standard deviation was considered good. Compounds acting as plant performance enhancers should promote a significant increase in average percentage of germination compared to the control above the standard deviation.

soybean seeds [2] = assay: Plant growth assay (radical length of germinating seed); assay type: in vivo; settings: soybean seeds germinated 24 hr with 10^−7 M compound, then additional 40 hr open to light at room temperature
Description: Plant growth assay Seeds germinated for 24 hr using the seed germination assay above were left open to light for another 40 hr. The radical length was measured and the percentage of germinating seed with radical length of greater than 1.5 cm was determined.

Structure (SMILES) | efficacy for enhanced seed germination and radical growth (summary in words) (soybean seeds [1]; conclusion from the germination and plant growth assays) | germination in 24 hours (soybean seeds [1]) [%] | germinating seed with radical length longer than 1.5 cm (soybean seeds [2]) [%]
CO[C@@H]1O[C@H](CO)[C@@H](O)[C@H](O)[C@H]1N [(2R,3S,4R,5R,6R)-5-amino-2-(hydroxymethyl)-6-methoxytetrahydro-2H-pyran-3,4-diol, reference compound] | insignificant efficacy | 53 | 45
CO[C@@H]1O[C@H](CO)[C@@H](O)[C@H](O)[C@H]1NC(=O)/C=C/C=C/c1ccccc1 [Example 1, (2E,4E)-N-((2R,3R,4R,5S,6R)-4,5-dihydroxy-6-(hydroxymethyl)-2-methoxytetrahydro-2H-pyran-3-yl)-5-phenylpenta-2,4-dienamide] |  | 75 | 69
CO[C@@H]1O[C@H](CO)[C@@H](O)[C@H](O)[C@H]1NC(=O)/C=C/c1ccc(C)cc1 [Example 2, (E)-N-((2R,3R,4R,5S,6R)-4,5-dihydroxy-6-(hydroxymethyl)-2-methoxytetrahydro-2H-pyran-3-yl)-3-(p-tolyl)acrylamide] |  | 70 | 66
CO[C@@H]1O[C@H](CO)[C@@H](O)[C@H](O)[C@H]1NC(=O)/C=C/c1cccc(C)c1 [Example 3, (E)-N-((2R,3R,4R,5S,6R)-4,5-dihydroxy-6-(hydroxymethyl)-2-methoxytetrahydro-2H-pyran-3-yl)-3-(m-tolyl)acrylamide] |  | 61 | 56
CO[C@@H]1O[C@H](CO)[C@@H](O)[C@H](O)[C@H]1NC(=O)/C=C/c1cccc(C(F)(F)F)c1 [Example 4, (E)-N-((2R,3R,4R,5S,6R)-4,5-dihydroxy-6-(hydroxymethyl)-2-methoxytetrahydro-2H-pyran-3-yl)-3-(3-(trifluoromethyl)phenyl)acrylamide] |  | 75 | 69
CO[C@@H]1O[C@H](CO)[C@@H](O)[C@H](O)[C@H]1NC(=O)C#Cc1ccccc1 [Example 5, N-((2R,3R,4R,5S,6R)-4,5-dihydroxy-6-(hydroxymethyl)-2-methoxytetrahydro-2H-pyran-3-yl)-3-phenylpropiolamide] |  | 86 | 95

Source: patent US20160007600A1, “SYNTHETIC LIPOCHITOOLIGOSACCHARIDE ANALOGS FOR ENHANCING PLANT PERFORMANCE” (E.I. DU PONT DE NEMOURS AND COMPANY, priority 2013, published 2016)
